Measurements published in patent publication US6028102A, “Anticonvulsant drugs and pharmaceutical compositions thereof” (priority 1998, dated 2000).
Where two headings read alike, the source gives them in different places. Peptide text beside a SMILES is read from it. * marks the point of attachment. Cbz = O=C(OCc1ccccc1)*

Key:
[1] = mice; Kohn et al 1988, 1990, 1991; Conley and Kohn, 1987; cited from earlier work
[2] = in vivo, cited from earlier work
[3] = Screening of anticonvulsant activity; format: in vivo, mice; conditions: for anticonvulsant activity: ip administration (300 mg) to mice; for anticonvulsant activity in words: overall finding of the study
Method: Screening of Anticonvulsant Activity
Compounds I-XI were screened in carworth farm #1 mice (ip--in a volume of 0.01 mL/g of body weight) and sprague-Dawley rats (po--in a volume of 0.004 mL/g of body weight) for their anticonvulsant activity and neurotoxicity by the NIH epilepsy Branch [Porter et al, 1984]. The screening procedure involved the following:
1) the maximal electroshock (MES) test, which measures seizure spread; 2) the subcutaneous pentylenetetrazol test (sc Met test) which measures seizure threshold; and 3) the rotored ataxia test which assesses neurotoxicity.
Applicants therefore decided to derivatize glycinamide and the above dipeptides by synthesizing their N-acetyl and N'-benzyl derivatives (compounds IV-VIII). […] Therefore, this compound was further analyzed quantitatively and its ED50 data and protective indices in comparison to phthaloyl glycinamide and valproyl glycinamide--TV 1901 [17] are presented in Table 2. As a consequence of their anticonvulsant activity, the pharmacokinetics of compounds VII and IX were investigated following iv administration (400 mg) to six dogs, and the mean plasma levels of compounds VII and IX are presented in FIGS. 1 and 2, respectively.

[4] = mice and rats / rodents; cited from earlier work
[5] = mice; Freed, 1985; cited from earlier work
[6] = electroshock, metrazole and homocysteine; Freed et al, 1979; cited from earlier work
[7] = Pharmacokinetic analysis following iv administration to dogs; format: in vivo; conditions: dog, in vivo
Method: The experiments were carried out on six male dogs (mongrels), ranging in weight between 18 and 22 kg. In a randomized cross over design, each dog was injected intravenously (in 1.5 mL of DMSO) with a dose of 400 mg of N-acetyl,N'-benzylglycinamide (VII), 404 mg (on dose equivalent to 400 mg of compound VII) of Z-glycinamide (IX) and 406 mg of Z-glycine (VIII). Urine was collected systematically for 12 hours after dosing, by means of an indwelling catheter.
Venous blood samples (6 mL) were collected via an indwelling catheter (from the cephalic vein) at specified intervals following injection (0, 5, 10, 20, 30, 45 minutes and 1, 1.5, 2, 2.5, 3, 4, 5, 6, 7, 8, 10 and 12 hours respectively). The plasma was then immediately separated by centrifugation at 3000 g for 15 minutes and stored at -20° C. Before each assay, the plasma was allowed to reach room temperature, vortexed, centrifuged and the residual clot removed.
Urine samples were collected via a urine catheter at specified intervals following injection (0, 1, 2, 3, 4, 5, 6, 7, 8, 9, 10 and 12 hours respectively), the samples volume were measured and the urine samples were stored at -20° C. Plasma and urine levels of compounds VII, VIII and IX were then assayed by a HPLC assay described herein below.
HPLC Assay for Monitoring N-acetyl,N'-benzylglycinamide (VII) and N-benzyloxycarbonylglycinamide (IX) in Dog Plasma and Urine
Plasma samples are allowed to reach room temperature, vortexed and centrifuged. The plasma was then assayed as follows:
To 0.5 mL of plasma, 10 μg of an internal standard (N-benzyl-oxycarbonylglycinamide (IX)) and 4 mL of tert-butylmethylether were added. The mixture was vigorously vortexed for 30 seconds, centrifuged for 10 minutes at 3000 g, the organic phase was separated and evaporated to dryness (using a vortex evaporator). To the residue, 80 μl of methanol were added, the mixture was vortexed and 30 μl were injected into the HPLC (Schimadzu SCL-10A with a UV-visible detector model SPD-10A).
Urine samples are allowed to reach room temperature, vortexed and centrifuged. The urine was then assayed as follows:
To 0.25 mL of urine, 10 μg of internal standard (N-benzyl-oxycarbonylglycinamide (IX)), 100 μl of hydrochloric acid solution (1 N) and 4 mL of tert-butylmethylether were added. The mixture was vigorously vortexed for 30 seconds and centrifuged for 10 minutes at 3000 g, the organic phase was separated and transferred to another test tube containing 0.5 mL of sodium hydroxide solution (1N), the mixture was vigorously vortexed for 30 seconds, centrifuged for 10 minutes at 3000 g, the organic phase was separated and evaporated to dryness (using a vortex evaporator). To the residue, 80 μl of methanol were added, the mixture was vortexed and 30 μl were injected into the HPLC.
HPLC conditions: HPLC column; Hypersil ODS (C-18) 5μ, 4.6×150 mm; Wavelength: 258 nm; Mobile phase: 60% water, 40% methanol and 0.01% trifluoroacetic acid.
The same assay was used for monitoring N-benzyloxycarbonyl-glycinamide (IX) in dog plasma and dog urine using N-acetyl,N'-benzylglycinamide as an internal standard.
HPLC Assay for Monitoring Z-glycine (VIII) in Dog Plasma and Urine
To 0.5 mL of plasma, 10 μg of internal standard (Z-GABA), 100 μl of hydrochloric acid solution (1N) and 5 mL of tert-butylmethylether were added. The mixture was vigorously vortexed for 30 seconds, centrifuged for 10 minutes at 3000 g, the organic phase was separated and evaporated to dryness (using a vortex evaporator). To the residue, 100 μl of mobile phase were added, the mixture was vortexed and 30 μl were injected to the HPLC.
Urine samples was allowed to reach room temperature, vortexed and centrifuged. The urine was then assayed as follows:
To 0.1 mL of urine, 30 μg of internal standard (Z-GABA) and 5 mL of tert-butylmethylether were added. The mixture was vigorously vortexed for 30 seconds, centrifuged for 10 minutes at 3000 g, the organic phase was separated off. […]

[8] = rats; Lambert et al. [1994]; cited from earlier work
[9] = dogs, iv, mean, Table 3, cited from earlier work; for CL / MRT / Vss / Vβ / t1/2: data from Salach et al 1994, Hadad and Bialer 1995
[10] = ip, mice; data from Salach et al (1994), Hadad and Bialer (1995); cited from earlier work
[11] = ip, mice, cited from earlier work; for sc Met, ED50: data from Salach et al (1994), Hadad and Bialer (1995)
[12] = ip, mice; data from Salach et al (1994), Hadad and Bialer (1995); cited from earlier work; remark: listed apart in the source

CC(=O)N[C@@H](C(=O)NCc1ccccc1)c1ccc[nH]1 (racemic) [(R,S)-2-acetamido-N-benzyl-2-pyrolacetamide]
anticonvulsant activity in MES test [1]: more potent than the analogous alanine and phenylglycine derivatives

CC(=O)NC(C)C(=O)NCc1ccccc1 (racemic) [N-acetyl,N'-benzyl DL-alaninamide]
anticonvulsant activity in MES test [1]: marked anticonvulsant activity

CC(=O)NC(C(=O)NCc1ccccc1)c1ccccc1 (racemic) [N-acetyl,N'-benzyl DL-phenyl glycinamide]
anticonvulsant activity in MES test [1]: marked anticonvulsant activity

NCCCC(=O)O [GABA]
effect upon oral or systemic administration [2]: neither GABA nor glycine are effective upon oral or systemic administration
blood-brain barrier passage [2]: inability to cross the blood brain barrier

NCC(=O)NCC(=O)O [I, Glycylglycine] (H-Gly-Gly-OH)
anticonvulsant activity [3]: did not show anticonvulsant activity

NCC(=O)NCC(N)=O [II, Glycylglycinamide]
anticonvulsant activity [3]: did not show anticonvulsant activity

NCCCC(=O)NCC(N)=O [III, Gaboylglycinamide]
anticonvulsant activity [3]: did not show anticonvulsant activity

CCC=C(CCC)C(=O)NCC(N)=O [N-2-enevalproyl glycinamide]
anticonvulsant activity in words [4]: good anticonvulsant activity in rodents

O=C(O)CNC(=O)CNC(=O)OCc1ccccc1 [X, N-benzyloxycarbonyl glycylglycine] (Cbz-Gly-Gly-OH)
anticonvulsant activity in words [3]: inactive as anticonvulsant

NC(=O)CNC(=O)CNC(=O)OCc1ccccc1 [XI, N-Benzyloxycarbonyl Glycylglycinamide] (Cbz-Gly-Gly-NH2)
anticonvulsant activity in words [3]: inactive as anticonvulsant

C[N+](C)(C)CC(=O)O [betaine, N,N,N-trimethyl glycine]
antagonism of strychnine-induced seizures [5]: antagonized
block of induction of convulsions [6]: block the induction of convulsions

CC(=O)NCC(=O)NCC(N)=O [compound VI, N-Acetylglycylglycinamide]
anticonvulsant activity in words [3]: inactive as anticonvulsant

O=C(O)CNC(=O)OCc1ccccc1 [compound VIII, N-benzyloxycarbonylglycine]
anticonvulsant activity in words [3]: lack of activity
anticonvulsant activity in words ([3]; listed as Z-glycine): inactive in this study
fm (fraction metabolized of Z-glycinamide to Z-glycine) [7]: 80.1 ± 13.6%
half-life [7]: 36 ± 8.4 min
pharmacokinetics and elimination in words [7]: its t1/2 was the shortest
Mu/D (fraction of Z-glycine excreted in the urine as a metabolite of Z-glycinamide) ([7]; 720 min): 20 ± 19.8%
clearance ([7]; CL): 90 mL/min
MRT ([7]; MRT): 48 ± 6 min
Vd ([7]; VSS / volume of distribution): 0.2 L/kg
Vd ([7]; Vss): 4.9 ± 0.6 L
Vd ([7]; Vβ): 4.5 ± 0.8 L
anticonvulsant activity relative to glycine [8]: far more active than glycine

CC(C)C(C(=O)NCC(N)=O)C(C)C [diisopropyl acety glycinamide]
anticonvulsant activity in words [4]: good anticonvulsant activity in rodents

CN(C)CC(=O)O [dimethylglycine]
antagonism of strychnine-induced seizures [5]: antagonized

NCC(=O)O [glycine]
effect upon oral or systemic administration [2]: neither GABA nor glycine are effective upon oral or systemic administration
blood-brain barrier passage [2]: does not readily cross the blood-brain barrier

NC(=O)CN1C(=O)c2ccccc2C1=O [phthaloyl glycinamide, phthaloylglycinamide]
CL [9]: 9 L/h
MRT [9]: 4.6 ± 0.9 h
Vss [9]: 46 ± 13 L
Vβ [9]: 48 ± 13 L
t1/2 [9]: 3.4 ± 0.7 h
fe (fraction excreted unchanged in urine) ([9]; data from Salach et al 1994, 720 min): 7.0 ± 0.7%
MES, ED50 [10]: 94 mg/kg
PI, MES (Protective index, ratio of TD50 to ED50) [10]: > 64
sc Met, ED50 [11]: > 400 mg/kg
Neurotoxicity, TD50 [12]: > 600 mg/kg

CNCC(=O)O [sarcosine, N-methylglycine]
antagonism of strychnine-induced seizures [5]: antagonized

CC1(C)C(C(=O)NCC(N)=O)C1(C)C [tetramethylcyclopropylcarbonyl glycinamide]
anticonvulsant activity in words [4]: good anticonvulsant activity in rodents

CCC(C)C(CC)C(=O)NCC(N)=O (centres unmarked) [valnoctyl glycinamide]
anticonvulsant activity in words [4]: good anticonvulsant activity in rodents

CCCC(CCC)C(=O)NCC(N)=O [valproyl glycinamide, N-valproyl glycinamide]
CL [9]: 3 ± 0.8 L/h
MRT [9]: 4.6 ± 0.7 h
Vss [9]: 12 ± 3 L
Vβ [9]: 11 ± 3 L
t1/2 [9]: 2.7 ± 0.5 h
anticonvulsant activity in words [4]: good anticonvulsant activity in both mice and rats
MES, ED50 [10]: 152 mg/kg
PI, MES (Protective index, ratio of TD50 to ED50) [10]: 2.4
PI, sc Met (Protective index, ratio of TD50 to ED50) ([11]; data from Hadad and Bialer (1995)): 2.9
sc Met, ED50 [11]: 127 mg/kg
